Source: PubChem BioAssay (NCI)
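Grown in 96-well plates, cells were treated for 48 hours with each compound at five concentrations. Insufficient inhibition: endpoint recorded as highest concentration tested. At the GI50, growth is halved. TGI marks complete inhibition of growth.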

What was measured:
Assay in all cases: growth of human tumour cells (NCI), 48 h
UACC-62 melanoma = test system: UACC-62 melanoma
MALME-3M melanoma = test system: MALME-3M melanoma
LOX IMVI melanoma = test system: LOX IMVI melanoma
SNB-19 CNS = test system: SNB-19 CNS
A549 NSCLC = test system: A549 NSCLC
NCI/ADR-RES ovarian = test system: NCI/ADR-RES ovarian
BT-549 breast = test system: BT-549 breast
ACHN renal = test system: ACHN renal
HL-60(TB) leukemia = test system: HL-60(TB) leukemia
DU-145 prostate = test system: DU-145 prostate
SW-620 colon = test system: SW-620 colon
SN12C renal = test system: SN12C renal
HCT-116 colon = test system: HCT-116 colon
SK-MEL-5 melanoma = test system: SK-MEL-5 melanoma
SNB-75 CNS = test system: SNB-75 CNS
NCI-H23 lung = test system: NCI-H23 lung
OVCAR-4 ovarian = test system: OVCAR-4 ovarian
PC-3 prostate = test system: PC-3 prostate
SF-268 CNS = test system: SF-268 CNS
T-47D breast = test system: T-47D breast
MDA-MB-231 breast = test system: MDA-MB-231 breast
HS 578T breast = test system: HS 578T breast
NCI-H522 lung = test system: NCI-H522 lung
OVCAR-3 ovarian = test system: OVCAR-3 ovarian
CCRF-CEM leukemia = test system: CCRF-CEM leukemia
OVCAR-8 ovarian = test system: OVCAR-8 ovarian
MOLT-4 leukemia = test system: MOLT-4 leukemia
MDA-MB-435 = test system: MDA-MB-435
UO-31 renal = test system: UO-31 renal
M14 melanoma = test system: M14 melanoma
COLO 205 colon = test system: COLO 205 colon
KM12 colon = test system: KM12 colon
SK-OV-3 ovarian = test system: SK-OV-3 ovarian
MCF7 breast = test system: MCF7 breast
SR leukemia = test system: SR leukemia
TK-10 renal = test system: TK-10 renal
U251 CNS = test system: U251 CNS
786-0 renal = test system: 786-0 renal
RPMI-8226 leukemia = test system: RPMI-8226 leukemia
HT29 colon = test system: HT29 colon
SK-MEL-2 melanoma = test system: SK-MEL-2 melanoma
HOP-92 NSCLC = test system: HOP-92 NSCLC
RXF 393 renal = test system: RXF 393 renal
HOP-62 NSCLC = test system: HOP-62 NSCLC
SK-MEL-28 melanoma = test system: SK-MEL-28 melanoma
OVCAR-5 ovarian = test system: OVCAR-5 ovarian
IGROV1 ovarian = test system: IGROV1 ovarian
CAKI-1 renal = test system: CAKI-1 renal
UACC-257 melanoma = test system: UACC-257 melanoma
SF-295 CNS = test system: SF-295 CNS
K-562 leukemia = test system: K-562 leukemia
NCI-H460 lung = test system: NCI-H460 lung
SF-539 CNS = test system: SF-539 CNS
NCI-H226 lung = test system: NCI-H226 lung
HCC-2998 colon = test system: HCC-2998 colon
A498 renal = test system: A498 renal
HCT-15 colon = test system: HCT-15 colon

Question: What does the source list for CCN(Cc1ccc(F)cc1)c1ccc(CO)c(OC)c1?
Answer: GI50 (UACC-62 melanoma): 4.14 µM; TGI (UACC-62 melanoma): 17.3 µM; GI50 (MALME-3M melanoma): 3.21 µM; TGI (MALME-3M melanoma): 14.3 µM; GI50 (LOX IMVI melanoma): 27.8 µM; TGI (LOX IMVI melanoma): > 100 µM; GI50 (SNB-19 CNS): 43.7 µM; TGI (SNB-19 CNS): > 100 µM; GI50 (A549 NSCLC): 40.1 µM; TGI (A549 NSCLC): > 100 µM; GI50 (NCI/ADR-RES ovarian): 17.6 µM; TGI (NCI/ADR-RES ovarian): 55.5 µM; GI50 (BT-549 breast): 7.7 µM; TGI (BT-549 breast): 32.7 µM; GI50 (ACHN renal): 17.1 µM; TGI (ACHN renal): 53.7 µM; GI50 (HL-60(TB) leukemia): 16 µM; TGI (HL-60(TB) leukemia): 46.4 µM; GI50 (DU-145 prostate): 27.6 µM; TGI (DU-145 prostate): > 95.2 µM; GI50 (SW-620 colon): 21.1 µM; TGI (SW-620 colon): > 100 µM; GI50 (SN12C renal): 21.9 µM; TGI (SN12C renal): > 100 µM; GI50 (HCT-116 colon): 10 µM; TGI (HCT-116 colon): 28.2 µM; GI50 (SK-MEL-5 melanoma): 11.9 µM; TGI (SK-MEL-5 melanoma): 24.9 µM; GI50 (SNB-75 CNS): 11.6 µM; TGI (SNB-75 CNS): > 100 µM; GI50 (NCI-H23 lung): 23.3 µM; TGI (NCI-H23 lung): > 100 µM; GI50 (OVCAR-4 ovarian): 7.02 µM; TGI (OVCAR-4 ovarian): 20.6 µM; GI50 (PC-3 prostate): 13.3 µM; TGI (PC-3 prostate): 33.9 µM; GI50 (SF-268 CNS): 22.1 µM; TGI (SF-268 CNS): > 65.4 µM; GI50 (T-47D breast): 6.32 µM; TGI (T-47D breast): 33.4 µM; GI50 (MDA-MB-231 breast): 23.1 µM; TGI (MDA-MB-231 breast): > 88.5 µM; GI50 (HS 578T breast): 14.9 µM; TGI (HS 578T breast): > 100 µM; GI50 (NCI-H522 lung): 6.61 µM; TGI (NCI-H522 lung): 20 µM; GI50 (OVCAR-3 ovarian): 13.1 µM; TGI (OVCAR-3 ovarian): 27.5 µM; GI50 (CCRF-CEM leukemia): 21.2 µM; TGI (CCRF-CEM leukemia): 72 µM; GI50 (OVCAR-8 ovarian): 19.2 µM; TGI (OVCAR-8 ovarian): > 64.5 µM; GI50 (MOLT-4 leukemia): 20.1 µM; TGI (MOLT-4 leukemia): 72.4 µM; GI50 (MDA-MB-435): 25.7 µM; TGI (MDA-MB-435): > 100 µM; GI50 (UO-31 renal): 13.7 µM; TGI (UO-31 renal): 35.6 µM; GI50 (M14 melanoma): 31.1 µM; TGI (M14 melanoma): > 100 µM; GI50 (COLO 205 colon): 13.4 µM; TGI (COLO 205 colon): 29.7 µM; GI50 (KM12 colon): 36.5 µM; TGI (KM12 colon): > 100 µM; GI50 (SK-OV-3 ovarian): 15.3 µM; TGI (SK-OV-3 ovarian): > 94.6 µM; GI50 (MCF7 breast): 25.3 µM; TGI (MCF7 breast): > 100 µM; GI50 (SR leukemia): 19.5 µM; TGI (SR leukemia): 55.7 µM; GI50 (TK-10 renal): 2.14 µM; TGI (TK-10 renal): 16.8 µM; GI50 (U251 CNS): 22.1 µM; TGI (U251 CNS): 99.3 µM; GI50 (786-0 renal): 21.4 µM; TGI (786-0 renal): 65.1 µM; GI50 (RPMI-8226 leukemia): 15.9 µM; TGI (RPMI-8226 leukemia): 50.5 µM; GI50 (HT29 colon): 24 µM; TGI (HT29 colon): > 67.5 µM; GI50 (SK-MEL-2 melanoma): 11.9 µM; TGI (SK-MEL-2 melanoma): 27.7 µM; GI50 (HOP-92 NSCLC): 7.29 µM; TGI (HOP-92 NSCLC): 37.2 µM; GI50 (RXF 393 renal): 9.44 µM; TGI (RXF 393 renal): 23.6 µM; GI50 (HOP-62 NSCLC): 40.8 µM; TGI (HOP-62 NSCLC): > 100 µM; GI50 (SK-MEL-28 melanoma): 20.2 µM; TGI (SK-MEL-28 melanoma): > 100 µM; GI50 (OVCAR-5 ovarian): 2.64 µM; TGI (OVCAR-5 ovarian): 12.2 µM; GI50 (IGROV1 ovarian): 6.62 µM; TGI (IGROV1 ovarian): 27.8 µM; GI50 (CAKI-1 renal): 4.69 µM; TGI (CAKI-1 renal): 33.3 µM; GI50 (UACC-257 melanoma): 8.85 µM; TGI (UACC-257 melanoma): 42.7 µM; GI50 (SF-295 CNS): 23.5 µM; TGI (SF-295 CNS): > 84.3 µM; GI50 (K-562 leukemia): 20 µM; TGI (K-562 leukemia): > 92 µM; GI50 (NCI-H460 lung): 23.2 µM; TGI (NCI-H460 lung): > 100 µM; GI50 (SF-539 CNS): 45.1 µM; TGI (SF-539 CNS): > 100 µM; GI50 (NCI-H226 lung): 1.15 µM; TGI (NCI-H226 lung): 2.77 µM; GI50 (HCC-2998 colon): 21.9 µM; TGI (HCC-2998 colon): > 60.5 µM; GI50 (A498 renal): 0.331 µM; TGI (A498 renal): 1.37 µM; GI50 (HCT-15 colon): 14.6 µM; TGI (HCT-15 colon): 41 µM
